The text below walks through data of patent US8901118B2, “Compounds and methods for kinase modulation, and indications therefor” (Plexxikon Inc., priority 2010, dated 2014).

Assay [1] addresses c-Kit kinase (Homo sapiens, UniProt P10721). Put plainly: c-Kit kinase biochemical activity assay (AlphaScreen, biotin-(E4Y)10 phosphorylation). To be noted: 100 μM ATP; read-out: Biochemical Inhibition IC50 Kit. Put shortly:
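Phosphorylation of 30 nM biotin-(E4Y)10 by c-Kit (0.75 ng per reaction) with 100 µM ATP in HEPES pH 7.5 buffer with Mg2+/Mn2+, 5% DMSO, 1 h at room temperature; 8-point 1:2 compound dilutions. AlphaScreen detection with streptavidin donor and PY20 acceptor beads after EDTA stop. IC50 from signal versus concentration.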
A general note: In Alpha technology, singlet oxygen from a donor bead excites a nearby acceptor bead.

In assay [2] the target is T1, BCR-FMS BaF3 cells (Homo sapiens, UniProt P07333).
T1 construct: fused on or other part: P11274 (Breakpoint cluster region protein)
T1 sequence (P07333 582-910): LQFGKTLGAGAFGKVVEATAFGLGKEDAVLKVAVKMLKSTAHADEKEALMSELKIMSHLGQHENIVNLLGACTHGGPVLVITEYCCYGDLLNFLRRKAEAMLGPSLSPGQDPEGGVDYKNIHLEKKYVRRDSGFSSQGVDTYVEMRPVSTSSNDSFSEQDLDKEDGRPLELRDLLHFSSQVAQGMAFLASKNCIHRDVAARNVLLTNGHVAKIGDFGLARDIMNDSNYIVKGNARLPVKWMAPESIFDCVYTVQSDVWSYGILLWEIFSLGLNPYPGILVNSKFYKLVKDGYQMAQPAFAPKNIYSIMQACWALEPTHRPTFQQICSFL
In words: BaF3 BCR-FMS cell proliferation assay (ATPlite). The conditions noted are these: read-out: Inhibition of Cell Proliferation IC50, BCR/BaF3 Fms. It is filed as cell-based. Put shortly: (§1)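 ATP-based luminescence (ATPlite), read after 10 min at room temperature, served as a proxy for cell number, and IC50 was fitted against compound concentration. Before that, cells were treated for 3 days with an 8-point 1:3 dilution series starting at 10 μM. BaF3 cells were plated at 10,000/well without IL-3, and MV-4-11 cells at 25,000/well.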
A general note: Cellular ATP, detected with luciferase, serves as a proxy for viable cell number.

The target in assay [3] is T2, BCR-NTRK2 BaF3 cells (Homo sapiens, UniProt Q16620).
T2 construct: fused on or other part: P11274 (Breakpoint cluster region protein)
Put plainly: BaF3 BCR-NTRK2 cell proliferation assay (ATPlite). In kind it is cell-based. To be noted: read-out: Inhibition of Cell Proliferation IC50, BCR/BaF3 TrkB. The gist of the method:
as §1

T2 sequence (Q16620 538-807): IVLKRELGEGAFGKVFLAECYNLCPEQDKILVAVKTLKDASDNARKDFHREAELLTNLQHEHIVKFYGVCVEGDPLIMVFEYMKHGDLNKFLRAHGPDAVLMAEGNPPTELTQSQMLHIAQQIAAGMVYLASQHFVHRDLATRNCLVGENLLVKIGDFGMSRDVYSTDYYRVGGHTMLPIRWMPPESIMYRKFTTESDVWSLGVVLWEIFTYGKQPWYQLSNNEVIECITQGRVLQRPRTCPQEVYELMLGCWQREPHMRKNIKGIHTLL
Sequence of c-Kit kinase (P10721 26-976): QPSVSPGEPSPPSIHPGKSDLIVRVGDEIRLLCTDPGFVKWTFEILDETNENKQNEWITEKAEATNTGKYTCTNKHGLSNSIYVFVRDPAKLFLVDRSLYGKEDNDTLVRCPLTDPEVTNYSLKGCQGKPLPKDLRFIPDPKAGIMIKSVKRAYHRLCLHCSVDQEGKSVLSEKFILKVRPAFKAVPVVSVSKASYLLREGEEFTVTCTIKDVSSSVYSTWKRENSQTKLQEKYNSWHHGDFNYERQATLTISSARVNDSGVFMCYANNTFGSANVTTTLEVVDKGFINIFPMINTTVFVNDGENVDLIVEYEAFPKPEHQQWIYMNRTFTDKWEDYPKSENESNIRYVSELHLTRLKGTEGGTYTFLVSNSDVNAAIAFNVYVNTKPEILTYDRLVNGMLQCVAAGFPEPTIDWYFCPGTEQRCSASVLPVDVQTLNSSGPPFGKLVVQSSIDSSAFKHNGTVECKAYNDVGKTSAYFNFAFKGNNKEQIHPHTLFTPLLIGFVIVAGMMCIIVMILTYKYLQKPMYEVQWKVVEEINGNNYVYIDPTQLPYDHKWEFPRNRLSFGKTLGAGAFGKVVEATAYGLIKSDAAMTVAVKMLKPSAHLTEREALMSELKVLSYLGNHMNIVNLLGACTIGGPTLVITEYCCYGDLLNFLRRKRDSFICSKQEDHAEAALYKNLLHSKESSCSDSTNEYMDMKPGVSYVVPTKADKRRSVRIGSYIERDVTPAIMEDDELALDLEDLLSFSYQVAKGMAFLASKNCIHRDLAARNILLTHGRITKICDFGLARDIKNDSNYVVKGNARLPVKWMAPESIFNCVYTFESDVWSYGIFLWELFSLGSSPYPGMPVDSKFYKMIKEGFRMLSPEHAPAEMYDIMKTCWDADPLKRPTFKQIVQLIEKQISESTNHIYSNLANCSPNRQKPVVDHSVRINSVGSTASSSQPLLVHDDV

With `COc1ccc(Nc2ccc(Cc3c[nH]c4ncnc(OC)c34)c(F)n2)cn1` [Compound P-4001, [6-Fluoro-5-(4-methoxy-7H-pyrrolo[2,3-d]pyrimidin-5-ylmethyl)-pyridin-2-yl]-(6-methoxy-pyridin-3-yl)-amine], the IC50 in assay [1] is below 1000 nM; in assay [2], below 10 nM; in assay [3], below 100 nM.

Consider `COc1ccc(Nc2ccc(Cc3c[nH]c4ncnc(C)c34)c(F)n2)cn1` [Compound P-4002, [6-Fluoro-5-(4-methyl-7H-pyrrolo[2,3-d]pyrimidin-5-ylmethyl)-pyridin-2-yl]-(6-methoxy-pyridin-3-yl)-amine], for which the values for the IC50 in assay [1], in assay [2] and in assay [3] were below 1000 nM, below 100 nM and below 1000 nM, respectively.

For the compound `COc1ncnc2[nH]cc(Cc3ccc(Nc4ccc(Cl)nc4)nc3F)c12` [Compound P-4003, (6-Chloro-pyridin-3-yl)-[6-fluoro-5-(4-methoxy-7H-pyrrolo[2,3-d]pyrimidin-5-ylmethyl)-pyridin-2-yl]-amine], the values for the IC50 in assay [1], in assay [2] and in assay [3] were below 1000 nM, below 100 nM and below 1000 nM, respectively.

Consider `COc1ncnc2[nH]cc(Cc3ccc(Nc4ccc(C5CC5)nc4)nc3F)c12` [Compound P-4004, (6-Cyclopropyl-pyridin-3-yl)-[6-fluoro-5-(4-methoxy-7H-pyrrolo[2,3-d]pyrimidin-5-ylmethyl)-pyridin-2-yl]-amine], for which the results for the IC50 in assay [1], in assay [2] and in assay [3] were below 100 nM, below 10 nM and below 10 nM, respectively.

For the compound `CCOc1ccc(Nc2ccc(Cc3c[nH]c4ncnc(OC)c34)c(F)n2)cn1` [Compound P-4005, (6-Ethoxy-pyridin-3-yl)-[6-fluoro-5-(4-methoxy-7H-pyrrolo[2,3-d]pyrimidin-5-ylmethyl)-pyridin-2-yl]-amine], the IC50 is below 100 nM in assay [1], below 10 nM in assay [2] and below 10 nM in assay [3].

Consider `CCOc1ccc(Nc2ccc(Cc3c[nH]c4ncnc(C)c34)c(F)n2)cn1` [Compound P-4006, (6-Ethoxy-pyridin-3-yl)-[6-fluoro-5-(4-methyl-7H-pyrrolo[2,3-d]pyrimidin-5-ylmethyl)-pyridin-2-yl]-amine], for which the IC50 in assay [1] was below 100 nM; in assay [2], below 10 nM; in assay [3], below 10 nM.

As for `CCc1ccc(Nc2ccc(Cc3c[nH]c4ncnc(OC)c34)c(F)n2)cn1` [Compound P-4007, (6-Ethyl-pyridin-3-yl)-[6-fluoro-5-(4-methoxy-7H-pyrrolo[2,3-d]pyrimidin-5-ylmethyl)-pyridin-2-yl]-amine], the IC50 was below 100 nM in assay [1], below 10 nM in assay [2] and below 100 nM in assay [3].

Regarding `CCOc1ccc(Nc2ccc(Cc3c[nH]c4ncnc(OCCOC)c34)c(F)n2)cn1` [Compound P-4008, (6-Ethoxy-pyridin-3-yl)-{6-fluoro-5-[4-(2-methoxy-ethoxy)-7H-pyrrolo[2,3-d]pyrimidin-5-ylmethyl]-pyridin-2-yl}-amine], the results for the IC50 in assay [1], in assay [2] and in assay [3] were below 1000 nM, below 10 nM and below 100 nM, respectively.

For `CCc1ccc(Nc2ccc(Cc3c[nH]c4ncnc(C)c34)c(F)n2)cn1` [Compound P-4009, (6-Ethyl-pyridin-3-yl)-[6-fluoro-5-(4-methyl-7H-pyrrolo[2,3-d]pyrimidin-5-ylmethyl)-pyridin-2-yl]-amine], the IC50 in assay [1] is below 100 nM; in assay [2], below 10 nM; in assay [3], below 10 nM.

As for `COc1ncnc2[nH]cc(Cc3ccc(Nc4ccc(C)nc4)nc3F)c12` [Compound P-4010, [6-Fluoro-5-(4-methoxy-7H-pyrrolo[2,3-d]pyrimidin-5-ylmethyl)-pyridin-2-yl]-(6-methyl-pyridin-3-yl)-amine], the IC50 in assay [1] was below 1000 nM; in assay [2], below 10 nM; in assay [3], below 100 nM.

As to `CCn1cc(Nc2ccc(Cc3c[nH]c4ncnc(OC)c34)c(F)n2)cn1` [Compound P-4011, (1-Ethyl-1H-pyrazol-4-yl)-[6-fluoro-5-(4-methoxy-7H-pyrrolo[2,3-d]pyrimidin-5-ylmethyl)-pyridin-2-yl]-amine], the IC50 in assay [1] is below 1000 nM; in assay [2] it was below 10 nM; in assay [3], below 1000 nM.

`CCOc1ncnc2[nH]cc(Cc3ccc(Nc4cnn(CC)c4)nc3F)c12` [Compound P-4012, [5-(4-Ethoxy-7H-pyrrolo[2,3-d]pyrimidin-5-ylmethyl)-6-fluoro-pyridin-2-yl]-(1-ethyl-1H-pyrazol-4-yl)-amine]: the IC50 in assay [1] was below 1000 nM; in assay [2] it was below 10 nM; in assay [3], below 100 nM.

In the case of `CCn1cc(Nc2ccc(Cc3c[nH]c4ncnc(C)c34)c(F)n2)cn1` [Compound P-4013, (1-Ethyl-1H-pyrazol-4-yl)-[6-fluoro-5-(4-methyl-7H-pyrrolo[2,3-d]pyrimidin-5-ylmethyl)-pyridin-2-yl]-amine], the IC50 in assay [1] was below 1000 nM; in assay [2], below 10 nM; in assay [3], below 1000 nM.

For `CCn1cc(Nc2ccc(Cc3c[nH]c4ncnc(OCCOC)c34)c(F)n2)cn1` [Compound P-4014, (1-Ethyl-1H-pyrazol-4-yl)-{6-fluoro-5-[4-(2-methoxy-ethoxy)-7H-pyrrolo[2,3-d]pyrimidin-5-ylmethyl]-pyridin-2-yl}-amine], the results for the IC50 in assay [1], in assay [2] and in assay [3] were below 100 nM, below 100 nM and below 1000 nM, respectively.

`COCCOc1ncnc2[nH]cc(Cc3ccc(Nc4ccc(C)nc4)nc3F)c12` [Compound P-4015, {6-Fluoro-5-[4-(2-methoxy-ethoxy)-7H-pyrrolo[2,3-d]pyrimidin-5-ylmethyl]-pyridin-2-yl}-(6-methyl-pyridin-3-yl)-amine]: the IC50 in assay [1] is below 100 nM; in assay [2], below 10 nM; in assay [3] it was below 1000 nM.

As for `CCc1ccc(Nc2ccc(Cc3c[nH]c4ncnc(OCCOC)c34)c(F)n2)cn1` [Compound P-4016, (6-Ethyl-pyridin-3-yl)-{6-fluoro-5-[4-(2-methoxy-ethoxy)-7H-pyrrolo[2,3-d]pyrimidin-5-ylmethyl]-pyridin-2-yl}-amine], the IC50 in assay [1] was below 100 nM; in assay [2], below 10 nM; in assay [3], below 10 nM.

Take `CCOc1ncnc2[nH]cc(Cc3ccc(Nc4ccc(C)nc4)nc3F)c12` [Compound P-4017, [5-(4-Ethoxy-7H-pyrrolo[2,3-d]pyrimidin-5-ylmethyl)-6-fluoro-pyridin-2-yl]-(6-methyl-pyridin-3-yl)-amine]: the figures for the IC50 in assay [1], in assay [2] and in assay [3] were below 100 nM, below 10 nM and below 1000 nM, respectively.

In the case of `CCOc1ncnc2[nH]cc(Cc3ccc(Nc4ccc(OC)nc4)nc3F)c12` [Compound P-4018, [5-(4-Ethoxy-7H-pyrrolo[2,3-d]pyrimidin-5-ylmethyl)-6-fluoro-pyridin-2-yl]-(6-methoxy-pyridin-3-yl)-amine], the IC50 in assay [1] was below 100 nM; in assay [2], below 10 nM; in assay [3] it was below 100 nM.

In the case of `COCCOc1ncnc2[nH]cc(Cc3ccc(Nc4ccc(OC)nc4)nc3F)c12` [Compound P-4019, {6-Fluoro-5-[4-(2-methoxy-ethoxy)-7H-pyrrolo[2,3-d]pyrimidin-5-ylmethyl]-pyridin-2-yl}-(6-methoxy-pyridin-3-yl)-amine], the IC50 in assay [1] is below 1000 nM; in assay [2], below 10 nM; in assay [3], below 100 nM.

Regarding `CCOc1ncnc2[nH]cc(Cc3ccc(Nc4ccc(Br)nc4)nc3F)c12` [Compound P-4020, (6-Bromo-pyridin-3-yl)-[5-(4-ethoxy-7H-pyrrolo[2,3-d]pyrimidin-5-ylmethyl)-6-fluoro-pyridin-2-yl]-amine], the IC50 in assay [1], in assay [2] and in assay [3] was below 100 nM each time.

As for `CCOc1ncnc2[nH]cc(Cc3ccc(Nc4cccnc4)nc3F)c12` [Compound P-4021, [5-(4-Ethoxy-7H-pyrrolo[2,3-d]pyrimidin-5-ylmethyl)-6-fluoro-pyridin-2-yl]-pyridin-3-yl-amine], the IC50 in assay [1], in assay [2] and in assay [3] was below 1000 nM each time.

With `COc1ccc(Nc2ccc(C(=O)c3c[nH]c4ncnc(C5CC5)c34)c(F)n2)cn1` [Compound P-4022, (4-cyclopropyl-7H-pyrrolo[2,3-d]pyrimidin-5-yl)-[2-fluoro-6-(6-methoxy-pyridin-3-ylamino)-pyridin-3-yl]-methanone], the IC50 was below 1000 nM in assay [1], below 100 nM in assay [2] and below 10 nM in assay [3].

`COc1ccc(Nc2ccc(Cc3c[nH]c4ncnc(C5CC5)c34)c(F)n2)cn1` [Compound P-4023, [5-(4-cyclopropyl-7H-pyrrolo[2,3-d]pyrimidin-5-ylmethyl)-6-fluoro-pyridin-2-yl]-(6-methoxy-pyridin-3-yl)-amine]: the IC50 was below 1000 nM in assay [1], below 10 nM in assay [2] and below 100 nM in assay [3].
